# From ChEMBL document CHEMBL1201861, “Genomics of Drug Sensitity in Cancer screening data, Wellcome Trust Sanger Institute”
# Assays:
# Test in all cases: cells
# HH = type: functional, cell-based, Homo sapiens; conditions: Homo sapiens, HH
# Description: SANGER: Inhibition of human HH cell growth in a cell viability assay.
# A101D = type: functional, cell-based, Homo sapiens; conditions: Homo sapiens, A101D;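 further: growth inhibition of the cell line, measured with a viability assay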
# Description: SANGER: Inhibition of human A101D cell growth in a cell viability assay.
# NCI-H1355 = type: functional, cell-based, Homo sapiens; conditions: Homo sapiens, NCI-H1355;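 further: growth inhibition of human NCI-H1355 cells, read out by a cell viability assay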
# Description: SANGER: Inhibition of human NCI-H1355 cell growth in a cell viability assay.
# TGBC24TKB = type: functional, cell-based; conditions: Homo sapiens;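 further: growth inhibition of human TGBC24TKB cells, read out with a cell viability assay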
# Description: SANGER: Inhibition of human TGBC24TKB cell growth in a cell viability assay.
# ES1 = type: functional, cell-based, Homo sapiens; conditions: Homo sapiens, ES1;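 further: growth inhibition of ES1 cells, read out with a cell viability assay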
# Description: SANGER: Inhibition of human ES1 cell growth in a cell viability assay.
# DMS-114 = type: functional, cell-based, Homo sapiens; conditions: Homo sapiens, DMS-114
# MZ1-PC = type: functional, cell-based, Homo sapiens; conditions: Homo sapiens, MZ1-PC;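 further: cell viability assay measuring growth inhibition of human MZ1-PC cells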
# Description: SANGER: Inhibition of human MZ1-PC cell growth in a cell viability assay.
# 8-MG-BA = type: functional, cell-based, Homo sapiens; conditions: Homo sapiens, 8-MG-BA;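 further: growth inhibition of 8-MG-BA cells, read out with a cell viability assay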
# Description: SANGER: Inhibition of human 8-MG-BA cell growth in a cell viability assay.
# VA-ES-BJ = type: functional, cell-based, Homo sapiens; conditions: Homo sapiens, VA-ES-BJ;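 further: growth inhibition of the VA-ES-BJ cell line, read out by a cell viability assay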
# Description: SANGER: Inhibition of human VA-ES-BJ cell growth in a cell viability assay.
# HCE-4 = type: functional, cell-based; conditions: Homo sapiens;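 further: cell viability assay measuring inhibition of growth in the human HCE-4 cell line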
# Description: SANGER: Inhibition of human HCE-4 cell growth in a cell viability assay.
# TE-12 = type: functional, cell-based, Homo sapiens; conditions: Homo sapiens, TE-12;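 further: growth inhibition of TE-12 cells, read out by a cell viability assay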
# Description: SANGER: Inhibition of human TE-12 cell growth in a cell viability assay.
# KARPAS-299 = type: functional, cell-based, Homo sapiens; conditions: Homo sapiens, KARPAS-299
# Description: SANGER: Inhibition of human KARPAS-299 cell growth in a cell viability assay.
# SCC-15 = type: functional, cell-based, Homo sapiens; conditions: Homo sapiens, SCC-15;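 further: growth inhibition of SCC-15 cells, read out with a cell viability assay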
# Description: SANGER: Inhibition of human SCC-15 cell growth in a cell viability assay.
# LOX IMVI = type: functional, cell-based, Homo sapiens; conditions: Homo sapiens, LOX IMVI
# Description: SANGER: Inhibition of human LOXIMVI cell growth in a cell viability assay.
# ES8 = type: functional, cell-based, Homo sapiens; conditions: Homo sapiens, ES8;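 further: growth inhibition of human ES8 cells, read out with a cell viability assay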
# Description: SANGER: Inhibition of human ES8 cell growth in a cell viability assay.
# GOTO = type: functional, cell-based, Homo sapiens; conditions: Homo sapiens, GOTO;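 further: growth inhibition of GOTO cells, read out by a cell viability assay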
# Description: SANGER: Inhibition of human GOTO cell growth in a cell viability assay.
# Ramos-2G6-4C10 = type: functional, cell-based, Homo sapiens; conditions: Homo sapiens, Ramos-2G6-4C10;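 further: growth inhibition of the cell line, measured by a cell viability read-out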
# Description: SANGER: Inhibition of human Ramos-2G6-4C10 cell growth in a cell viability assay.
# COLO-800 = type: functional, cell-based, Homo sapiens; conditions: Homo sapiens, COLO-800;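 further: growth inhibition of COLO-800 cells, read out with a cell viability assay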
# Description: SANGER: Inhibition of human COLO-800 cell growth in a cell viability assay.
# GB-1 = type: functional, cell-based, Homo sapiens; conditions: Homo sapiens, GB-1;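 further: growth of GB-1 cells judged by a viability assay, IC50 marks the concentration inhibiting growth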
# Description: SANGER: Inhibition of human GB-1 cell growth in a cell viability assay.
# IA-LM = type: functional, cell-based; conditions: Homo sapiens;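 further: cell viability assay measuring growth inhibition of human IA-LM cells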
# Description: SANGER: Inhibition of human IA-LM cell growth in a cell viability assay.
# A498 = type: functional, cell-based, Homo sapiens; conditions: Homo sapiens, A498;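 further: growth inhibition of human A498 cells, read out with a cell viability assay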
# Description: SANGER: Inhibition of human A498 cell growth in a cell viability assay.
# Mo = type: functional, cell-based, Homo sapiens; conditions: Homo sapiens, Mo
# Description: SANGER: Inhibition of human Mo-T cell growth in a cell viability assay.
# MLMA = type: functional, cell-based, Homo sapiens; conditions: Homo sapiens, MLMA;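 further: growth inhibition of MLMA cells (human), determined through a cell viability readout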
# Description: SANGER: Inhibition of human MLMA cell growth in a cell viability assay.
# MFM-223 = type: functional, cell-based, Homo sapiens; conditions: Homo sapiens, MFM-223
# Description: SANGER: Inhibition of human MFM-223 cell growth in a cell viability assay.
# HOP-62 = type: functional, cell-based, Homo sapiens; conditions: Homo sapiens, HOP-62;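 further: cell growth inhibition determined with a viability assay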
# Description: SANGER: Inhibition of human HOP-62 cell growth in a cell viability assay.
# GI-1 = type: functional, cell-based, Homo sapiens; conditions: Homo sapiens, GI-1;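 further: growth inhibition of human GI-1 cells, measured with a cell viability readout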
# Description: SANGER: Inhibition of human GI-1 cell growth in a cell viability assay.
# ES6 = type: functional, cell-based; conditions: Homo sapiens;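 further: growth inhibition of human ES6 cells, read out with a cell viability assay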
# Description: SANGER: Inhibition of human ES6 cell growth in a cell viability assay.
# C2BBe1 = type: functional, cell-based, Homo sapiens; conditions: Homo sapiens, C2BBe1;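 further: growth inhibition of C2BBe1 cells, read out through a viability assay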
# Description: SANGER: Inhibition of human C2BBe1 cell growth in a cell viability assay.
# SH-4 = type: functional, cell-based; conditions: Homo sapiens;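 further: growth inhibition of SH-4 cells, read out with a cell viability assay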
# Description: SANGER: Inhibition of human SH-4 cell growth in a cell viability assay.
# KNS-42 = type: functional, cell-based; conditions: Homo sapiens;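 further: growth inhibition of KNS-42 cells, read out with a cell viability assay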
# Description: SANGER: Inhibition of human KNS-42 cell growth in a cell viability assay.
# HCC2157 = type: functional, cell-based, Homo sapiens; conditions: Homo sapiens, HCC2157;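 further: growth inhibition of the cancer cell line, read out as cell viability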
# Description: SANGER: Inhibition of human HCC2157 cell growth in a cell viability assay.
# MZ7-mel = type: functional, cell-based, Homo sapiens; conditions: Homo sapiens, MZ7-mel;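 further: growth inhibition of human MZ7-mel cells, measured by a cell viability assay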
# Description: SANGER: Inhibition of human MZ7-mel cell growth in a cell viability assay.
# SF-126 = type: functional, cell-based, Homo sapiens; conditions: Homo sapiens, SF-126;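 further: growth inhibition of human SF126 cells, read out with a cell viability assay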
# Description: SANGER: Inhibition of human SF126 cell growth in a cell viability assay.
# BB65-RCC = type: functional, cell-based, Homo sapiens; conditions: Homo sapiens, BB65-RCC;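 further: growth inhibition of the cell line, measured with a cell viability assay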
# Description: SANGER: Inhibition of human BB65-RCC cell growth in a cell viability assay.
# SF-268 = type: functional, cell-based, Homo sapiens; conditions: Homo sapiens, SF-268;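 further: growth inhibition of SF-268 cells determined with a cell viability assay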
# Description: SANGER: Inhibition of human SF268 cell growth in a cell viability assay.
# NTERA-2-cl-D1 = type: functional, cell-based, Homo sapiens; conditions: Homo sapiens, NTERA-2-cl-D1;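 further: inhibition of cell growth, measured with a cell viability assay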
# Description: SANGER: Inhibition of human NTERA-S-cl-D1 cell growth in a cell viability assay.
# LU-134-A = type: functional, cell-based, Homo sapiens; conditions: Homo sapiens, LU-134-A
# Description: SANGER: Inhibition of human LU-134-A cell growth in a cell viability assay.
# TGW = type: functional, cell-based, Homo sapiens; conditions: Homo sapiens, TGW;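 further: growth inhibition of human TGW cells, read out with a cell viability assay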
# Description: SANGER: Inhibition of human TGW cell growth in a cell viability assay.
# SNB-75 = type: functional, cell-based, Homo sapiens; conditions: Homo sapiens, SNB-75;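 further: cell viability assay measuring growth inhibition of human SNB-75 cells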
# Description: SANGER: Inhibition of human SNB75 cell growth in a cell viability assay.
# KS-1 = type: functional, cell-based; conditions: Homo sapiens;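 further: growth inhibition of KS-1 cells, read out with a cell viability assay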
# Description: SANGER: Inhibition of human KS-1 cell growth in a cell viability assay.
# ETK-1 = type: functional, cell-based, Homo sapiens; conditions: Homo sapiens, ETK-1;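 further: growth inhibition of human ETK-1 cells, read out with a cell viability assay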
# Description: SANGER: Inhibition of human ETK-1 cell growth in a cell viability assay.
# LB2518-MEL = type: functional, cell-based; conditions: Homo sapiens;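 further: growth inhibition of human LB2518-MEL cells, measured with a cell viability assay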
# Description: SANGER: Inhibition of human LB2518-MEL cell growth in a cell viability assay.
# SF-539 = type: functional, cell-based, Homo sapiens; conditions: Homo sapiens, SF-539;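 further: Read-out is a cell viability assay, with IC50 reflecting inhibition of cell growth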
# Description: SANGER: Inhibition of human SF539 cell growth in a cell viability assay.
# LS-123 = type: functional, cell-based, Homo sapiens; conditions: Homo sapiens, LS-123
# Description: SANGER: Inhibition of human LS-123 cell growth in a cell viability assay.
# CGTH-W-1 = type: functional, cell-based, Homo sapiens; conditions: Homo sapiens, CGTH-W-1;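 further: growth inhibition of human CGTH-W-1 cells measured by cell viability assay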
# Description: SANGER: Inhibition of human CGTH-W-1 cell growth in a cell viability assay.
# LNCaP-Clone-FGC = type: functional, cell-based, Homo sapiens; conditions: Homo sapiens, LNCaP-Clone-FGC
# Description: SANGER: Inhibition of human LNCaP-Clone-FGC cell growth in a cell viability assay.
# NCI-H209 = type: functional, cell-based, Homo sapiens; conditions: Homo sapiens, NCI-H209;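 further: growth inhibition of human NCI-H209 cells, measured by a cell viability assay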
# Description: SANGER: Inhibition of human NCI-H209 cell growth in a cell viability assay.
# SK-MEL-1 = type: functional, cell-based, Homo sapiens; conditions: Homo sapiens, SK-MEL-1;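 further: growth inhibition of human SK-MEL-1 cells, read out by a cell viability assay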
# Description: SANGER: Inhibition of human SK-MEL-1 cell growth in a cell viability assay.
# KARPAS-45 = type: functional, cell-based, Homo sapiens; conditions: Homo sapiens, KARPAS-45;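 further: inhibition of cell line growth, read out through a viability assay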
# Description: SANGER: Inhibition of human KARPAS-45 cell growth in a cell viability assay.
# D-263MG = type: functional, cell-based, Homo sapiens; conditions: Homo sapiens, D-263MG
# Description: SANGER: Inhibition of human D-263MG cell growth in a cell viability assay.
# RPMI-8866 = type: functional, cell-based, Homo sapiens; conditions: Homo sapiens, RPMI-8866
# Description: SANGER: Inhibition of human RPMI-8866 cell growth in a cell viability assay.
structure (smiles),measurement,setting,value
CCCCCCCCCCCC1=C(O)C(=O)C=C(O)C1=O [EMBELIN],IC50,HH,> 32 µM
same,IC50,A101D,6.37 µM
same,IC50,NCI-H1355,10.1 µM
same,IC50,TGBC24TKB,26.5 µM
same,IC50,ES1,7.81 µM
same,IC50,DMS-114,> 32 µM
same,IC50,MZ1-PC,5.71 µM
same,IC50,8-MG-BA,3.53 µM
same,IC50,VA-ES-BJ,10.7 µM
same,IC50,HCE-4,8.56 µM
same,IC50,TE-12,14.4 µM
same,IC50,KARPAS-299,> 32 µM
same,IC50,SCC-15,7.81 µM
same,IC50,LOX IMVI,17.5 µM
same,IC50,ES8,14 µM
same,IC50,GOTO,23.6 µM
same,IC50,Ramos-2G6-4C10,17 µM
same,IC50,COLO-800,> 32 µM
same,IC50,GB-1,5.23 µM
same,IC50,IA-LM,2.23 µM
same,IC50,A498,> 32 µM
same,IC50,Mo,> 32 µM
same,IC50,MLMA,> 32 µM
same,IC50,MFM-223,> 32 µM
same,IC50,HOP-62,5.69 µM
same,IC50,GI-1,3.76 µM
same,IC50,ES6,9.55 µM
same,IC50,C2BBe1,13.9 µM
same,IC50,SH-4,24.9 µM
same,IC50,KNS-42,> 32 µM
same,IC50,HCC2157,> 32 µM
same,IC50,MZ7-mel,9.78 µM
same,IC50,SF-126,10.3 µM
same,IC50,BB65-RCC,11.4 µM
same,IC50,SF-268,7.9 µM
same,IC50,NTERA-2-cl-D1,1.6 µM
same,IC50,LU-134-A,> 32 µM
same,IC50,TGW,> 32 µM
same,IC50,SNB-75,17.4 µM
same,IC50,KS-1,14.5 µM
same,IC50,ETK-1,9.75 µM
same,IC50,LB2518-MEL,> 32 µM
same,IC50,SF-539,15.4 µM
same,IC50,LS-123,9.42 µM
same,IC50,CGTH-W-1,16.8 µM
same,IC50,LNCaP-Clone-FGC,21.9 µM
same,IC50,NCI-H209,> 32 µM
same,IC50,SK-MEL-1,> 32 µM
same,IC50,KARPAS-45,15.6 µM
same,IC50,D-263MG,> 32 µM
same,IC50,RPMI-8866,8.1 µM
COc1ccc(N(C(=O)Oc2c(C)cccc2C)c2ccnc(Nc3ccc(N4CCN(C)CC4)cc3)n2)c(OC)c1,IC50,HH,> 5.12 µM
same,IC50,A101D,> 5.12 µM
same,IC50,NCI-H1355,4.88 µM
same,IC50,TGBC24TKB,1.04 µM
same,IC50,ES1,> 5.12 µM
same,IC50,DMS-114,2.79 µM
same,IC50,MZ1-PC,0.227 µM
same,IC50,8-MG-BA,> 5.12 µM
same,IC50,VA-ES-BJ,0.463 µM
same,IC50,HCE-4,> 5.12 µM
same,IC50,TE-12,0.888 µM
same,IC50,KARPAS-299,> 5.12 µM
same,IC50,SCC-15,> 5.12 µM
same,IC50,LOX IMVI,> 5.12 µM
same,IC50,ES8,> 5.12 µM
same,IC50,GOTO,> 5.12 µM
same,IC50,Ramos-2G6-4C10,> 5.12 µM
same,IC50,COLO-800,> 5.12 µM
same,IC50,GB-1,1.16 µM
same,IC50,IA-LM,> 5.12 µM
same,IC50,A498,0.189 µM
same,IC50,Mo,> 5.12 µM
same,IC50,MLMA,1.92 µM
same,IC50,MFM-223,> 5.12 µM
same,IC50,HOP-62,0.916 µM
same,IC50,GI-1,> 5.12 µM
same,IC50,ES6,2.05 µM
same,IC50,C2BBe1,> 5.12 µM
same,IC50,SH-4,2.12 µM
same,IC50,KNS-42,> 5.12 µM
same,IC50,HCC2157,> 5.12 µM
same,IC50,MZ7-mel,5.09 µM
same,IC50,SF-126,1.73 µM
same,IC50,BB65-RCC,4.7 µM
same,IC50,SF-268,2.49 µM
same,IC50,NTERA-2-cl-D1,0.289 µM
same,IC50,LU-134-A,> 5.12 µM
same,IC50,TGW,> 5.12 µM
same,IC50,SNB-75,0.358 µM
same,IC50,KS-1,0.0776 µM
same,IC50,ETK-1,> 5.12 µM
same,IC50,LB2518-MEL,0.0467 µM
same,IC50,SF-539,> 5.12 µM
same,IC50,LS-123,4.36 µM
same,IC50,CGTH-W-1,> 5.12 µM
same,IC50,LNCaP-Clone-FGC,> 5.12 µM
same,IC50,NCI-H209,> 5.12 µM
same,IC50,SK-MEL-1,> 5.12 µM
same,IC50,KARPAS-45,> 5.12 µM
same,IC50,D-263MG,2.29 µM
same,IC50,RPMI-8866,> 5.12 µM
